Results from ChEMBL document CHEMBL1201862, “PubChem BioAssay data set” (2004).
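Grown in 96-well plates, cells were treated for 48 hours with each compound at five concentrations. Insufficient inhibition: endpoint recorded as highest concentration tested. GI50 marks 50% less growth.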 Active and inactive are the calls of the source. Cut-off read from the data, not from the text of the source: active = GI50 up to about 1.1 µM and inactive = higher.

Columns and labels:
Assay in all cases: NCI tumour cell line growth inhibition, 48 h
[1] = tested on: SNB-75
[2] = tested on: DMS-114
[3] = tested on: HCC 2998
[4] = tested on: 786-0
[5] = tested on: Malme-3M
[6] = tested on: K562
[7] = tested on: SN12C
[8] = tested on: SK-MEL-28
[9] = tested on: RXF 631
[10] = tested on: SR
[11] = tested on: SF-539
[12] = tested on: LXFL 529
[13] = tested on: NCI-H522
[14] = tested on: DLD-1
[15] = tested on: OVCAR-4
[16] = tested on: IGROV-1
[17] = tested on: SF-268
[18] = tested on: HOP-92
[19] = tested on: HL-60
[20] = tested on: DMS-273
[21] = tested on: HOP-62
[22] = tested on: NCI-H226
[23] = tested on: A498
[24] = tested on: RPMI-8226
[25] = tested on: HCT-116
[26] = tested on: COLO 205
[27] = tested on: SK-MEL-2
[28] = tested on: MOLT-4
[29] = tested on: UACC-62
[30] = tested on: NCI-H23
[31] = tested on: M14
[32] = tested on: CAKI-1
[33] = tested on: M19-MEL
[34] = tested on: UO-31
[35] = tested on: CCRF-CEM
[36] = tested on: SK-OV-3
[37] = tested on: ACHN
[38] = tested on: SNB-78
[39] = tested on: NCI-H460
[40] = tested on: SW-620
[41] = tested on: HOP-18
[42] = tested on: U-251
[43] = tested on: SNB-19
[44] = tested on: UACC-257
[45] = tested on: OVCAR-8
[46] = tested on: OVCAR-5
[47] = tested on: EKVX
[48] = tested on: XF498
[49] = tested on: LOX IMVI
[50] = tested on: HT-29
[51] = tested on: SF-295
[52] = tested on: SK-MEL-5
[53] = tested on: NCI/ADR-RES
[54] = tested on: A549
[55] = tested on: RXF 393
[56] = tested on: KM12
[57] = tested on: HCT-15
[58] = tested on: KM-20L2
[59] = tested on: MCF7
[60] = tested on: OVCAR-3
[61] = tested on: TK-10

COc1cc([C@H]2Oc3cc(O)c4c(=O)cc(-c5ccc(O)cc5)oc4c3O[C@@H]2CO)ccc1O
GI50 [1]: 5.45 µM (inactive)
GI50 [2]: 15.9 µM (inactive)
GI50 [3]: 15 µM (inactive)
GI50 [4]: 15.3 µM (inactive)
GI50 [5]: 18.8 µM (inactive)
GI50 [6]: 23.4 µM (inactive)
GI50 [7]: > 10 µM (inactive)
GI50 [8]: 14.5 µM (inactive)
GI50 [9]: 10.6 µM (inactive)
GI50 [10]: 15.3 µM (inactive)
GI50 [11]: > 10 µM (inactive)
GI50 [12]: 15.1 µM (inactive)
GI50 [13]: 4.76 µM (inactive)
GI50 [14]: 15.3 µM (inactive)
GI50 [15]: 20.1 µM (inactive)
GI50 [16]: 19.7 µM (inactive)
GI50 [17]: 2.28 µM (inactive)
GI50 [18]: 25.5 µM (inactive)
GI50 [19]: 18.8 µM (inactive)
GI50 [20]: 14.2 µM (inactive)
GI50 [21]: 14.5 µM (inactive)
GI50 [22]: 18.5 µM (inactive)
GI50 [23]: 16.8 µM (inactive)
GI50 [24]: 16.1 µM (inactive)
GI50 [25]: 13.5 µM (inactive)
GI50 [26]: 15.2 µM (inactive)
GI50 [27]: 16.1 µM (inactive)
GI50 [28]: 18.7 µM (inactive)
GI50 [29]: 11.1 µM (inactive)
GI50 [30]: 14.6 µM (inactive)
GI50 [31]: 16.8 µM (inactive)
GI50 [32]: 15.1 µM (inactive)
GI50 [33]: 17.7 µM (inactive)
GI50 [34]: 12.6 µM (inactive)
GI50 [35]: 13.6 µM (inactive)
GI50 [36]: 14.6 µM (inactive)
GI50 [37]: 12.9 µM (inactive)
GI50 [38]: 14.6 µM (inactive)
GI50 [39]: 4.54 µM (inactive)

O=[N+]([O-])c1cnccc1-n1nnc2ccccc21
GI50 [40]: 24.3 µM (inactive)
GI50 [1]: 15.2 µM (inactive)
GI50 [2]: 11.5 µM (inactive)
GI50 [41]: 14.1 µM (inactive)
GI50 [3]: 19.7 µM (inactive)
GI50 [42]: 22.5 µM (inactive)
GI50 [5]: 17.3 µM (inactive)
GI50 [43]: 30.6 µM (inactive)
GI50 [44]: 14.7 µM (inactive)
GI50 [6]: 20.7 µM (inactive)
GI50 [7]: 16 µM (inactive)
GI50 [8]: 19.9 µM (inactive)
GI50 [45]: 17.7 µM (inactive)
GI50 [46]: 32.1 µM (inactive)
GI50 [47]: 22 µM (inactive)
GI50 [48]: 13.8 µM (inactive)
GI50 [11]: 20.5 µM (inactive)
GI50 [49]: 12.6 µM (inactive)
GI50 [13]: 16 µM (inactive)
GI50 [14]: 20.2 µM (inactive)
GI50 [15]: 15.3 µM (inactive)
GI50 [16]: 13.9 µM (inactive)
GI50 [50]: 28.3 µM (inactive)
GI50 [51]: 20.2 µM (inactive)
GI50 [17]: 18.8 µM (inactive)
GI50 [18]: 18.8 µM (inactive)
GI50 [19]: 16 µM (inactive)
GI50 [52]: 13.9 µM (inactive)
GI50 [53]: 20.2 µM (inactive)
GI50 [20]: 14.1 µM (inactive)
GI50 [21]: 25.1 µM (inactive)
GI50 [22]: 18.9 µM (inactive)
GI50 [23]: 28.3 µM (inactive)
GI50 [54]: 25.1 µM (inactive)
GI50 [24]: 32.9 µM (inactive)
GI50 [25]: 24.4 µM (inactive)
GI50 [55]: 17.3 µM (inactive)
GI50 [26]: 17.9 µM (inactive)
GI50 [27]: 16.5 µM (inactive)
GI50 [28]: > 48 µM (inactive)
GI50 [56]: 17.2 µM (inactive)
GI50 [29]: 13.8 µM (inactive)
GI50 [57]: 18 µM
GI50 [30]: 18.2 µM (inactive)
GI50 [33]: 15.3 µM (inactive)
GI50 [34]: 19.4 µM (inactive)
GI50 [35]: 19.8 µM (inactive)
GI50 [36]: 23.3 µM (inactive)
GI50 [38]: 27 µM (inactive)
GI50 [39]: 21.5 µM (inactive)
GI50 [58]: 29.2 µM (inactive)
GI50 [59]: 13.4 µM (inactive)
GI50 [60]: 17.8 µM (inactive)

CC(=O)CC(=O)CCC(=O)Nc1cccc(C(F)(F)F)c1
GI50 [40]: > 100 µM (inactive)
GI50 [2]: > 100 µM (inactive)
GI50 [41]: > 100 µM (inactive)
GI50 [3]: > 100 µM (inactive)
GI50 [4]: > 100 µM (inactive)
GI50 [42]: > 100 µM (inactive)
GI50 [5]: > 100 µM (inactive)
GI50 [43]: > 100 µM (inactive)
GI50 [44]: > 100 µM (inactive)
GI50 [6]: > 100 µM (inactive)
GI50 [7]: > 100 µM (inactive)
GI50 [45]: > 100 µM (inactive)
GI50 [46]: > 100 µM (inactive)
GI50 [47]: > 100 µM (inactive)
GI50 [48]: > 100 µM (inactive)
GI50 [11]: > 100 µM (inactive)
GI50 [61]: > 100 µM (inactive)
GI50 [49]: > 100 µM (inactive)
GI50 [12]: > 100 µM (inactive)
GI50 [13]: > 100 µM (inactive)
GI50 [14]: > 100 µM (inactive)
GI50 [15]: > 100 µM (inactive)
GI50 [16]: > 100 µM (inactive)
GI50 [50]: > 100 µM (inactive)
GI50 [51]: > 100 µM (inactive)
GI50 [17]: > 100 µM (inactive)
GI50 [18]: > 100 µM (inactive)
GI50 [19]: > 100 µM (inactive)
GI50 [52]: > 100 µM (inactive)
GI50 [20]: > 100 µM (inactive)
GI50 [21]: > 100 µM (inactive)
GI50 [22]: > 100 µM (inactive)
GI50 [23]: > 100 µM (inactive)
GI50 [54]: > 100 µM (inactive)
GI50 [24]: > 100 µM (inactive)
GI50 [25]: > 100 µM (inactive)
GI50 [26]: > 100 µM (inactive)
GI50 [27]: > 100 µM (inactive)
GI50 [28]: > 100 µM (inactive)
GI50 [56]: > 100 µM (inactive)
GI50 [29]: > 100 µM (inactive)
GI50 [57]: > 100 µM
GI50 [30]: > 100 µM (inactive)
GI50 [31]: > 100 µM (inactive)
GI50 [32]: > 100 µM (inactive)
GI50 [34]: > 100 µM (inactive)
GI50 [35]: > 100 µM (inactive)
GI50 [36]: > 100 µM (inactive)
GI50 [37]: > 100 µM (inactive)
GI50 [38]: > 100 µM (inactive)
GI50 [39]: > 100 µM (inactive)
GI50 [58]: > 100 µM (inactive)
GI50 [60]: > 100 µM (inactive)

C=CC1(NC(=O)c2ccccc2)CCC(C(C)(C)C)CC1 (configuration not stated)
GI50 [40]: 35.3 µM (inactive)
GI50 [1]: 31.5 µM (inactive)
GI50 [2]: 27.7 µM (inactive)
GI50 [41]: 47.5 µM (inactive)
GI50 [3]: 36.7 µM (inactive)
GI50 [42]: 22.5 µM (inactive)
GI50 [5]: 34.2 µM (inactive)
GI50 [43]: 30.1 µM (inactive)
GI50 [44]: 26.4 µM (inactive)
GI50 [6]: 30.8 µM (inactive)
GI50 [7]: 35.2 µM (inactive)
GI50 [8]: 42.6 µM (inactive)
GI50 [45]: 49.7 µM (inactive)
GI50 [46]: 28.1 µM (inactive)
GI50 [47]: > 47.1 µM (inactive)
GI50 [48]: > 43.1 µM (inactive)
GI50 [11]: 44.3 µM (inactive)
GI50 [49]: 20.3 µM (inactive)
GI50 [13]: 30.8 µM (inactive)
GI50 [14]: 36.6 µM (inactive)
GI50 [15]: 27.7 µM (inactive)
GI50 [16]: 37.6 µM (inactive)
GI50 [50]: 23.9 µM (inactive)
GI50 [51]: 7.26 µM (inactive)
GI50 [17]: 43.2 µM (inactive)
GI50 [19]: 14.4 µM (inactive)
GI50 [52]: 19.9 µM (inactive)
GI50 [53]: 19.6 µM (inactive)
GI50 [20]: 32.2 µM (inactive)
GI50 [21]: 35.8 µM (inactive)
GI50 [22]: 27.8 µM (inactive)
GI50 [23]: 48.2 µM (inactive)
GI50 [54]: 30.5 µM (inactive)
GI50 [24]: 20.9 µM (inactive)
GI50 [25]: 22.8 µM (inactive)
GI50 [55]: 49.3 µM (inactive)
GI50 [26]: 21.7 µM (inactive)
GI50 [27]: 25.2 µM (inactive)
GI50 [28]: 10.6 µM (inactive)
GI50 [56]: 35.2 µM (inactive)
GI50 [29]: 26.6 µM (inactive)
GI50 [57]: 32.4 µM
GI50 [30]: 32 µM (inactive)
GI50 [33]: 29.5 µM (inactive)
GI50 [34]: 22 µM (inactive)
GI50 [35]: 18.5 µM (inactive)
GI50 [36]: 80.7 µM (inactive)
GI50 [38]: 39.1 µM (inactive)
GI50 [39]: 31.1 µM (inactive)
GI50 [58]: 19.1 µM (inactive)
GI50 [59]: 30.8 µM (inactive)
GI50 [60]: 29.6 µM (inactive)
